Results published in patent publication US9181375B2, “Fluorescent potassium ion sensors” (ARIZONA BOARD OF REGENTS, A BODY CORPORATE OF THE STATE OF …, priority 2011, dated 2015).

Assays:
[1] = tested on: U87MG cells; assay: Dynamic K+ influx and efflux monitored with 2(a) after nigericin; type: cell-based, human; conditions: nigericin 20 μM in 20 mM KCl medium
Experimental: 2(a) was further tested for in-situ observation of dynamic potassium ion influx and then efflux through the changes of fluorescence (FIG. 15) stimulated by an ionophore nigericin. Cells internalized with 4 μM of 2(a) at 37° C. for 10 minutes were washed with 20 mM KCl-containing fresh medium. Nigericin (20 μM at its final concentration) was added in 20 mM KCl-containing medium to help K^+ to across cell membrane. Enhanced fluorescence was immediately observed after the addition of nigericin, indicating potassium ion influx occurred. The potassium influx peaked after 3 minutes with an average of fluorescence increase of 370%. After 3 minutes, potassium efflux was observed by the decrease of the fluorescence. The efflux stabilized after 15 minutes, and the fluorescence intensity after the stabilization was about 25% below that of before the stimulation by nigericin. The ionophore nigericin was used to stimulate K^+ influx for yeast Saccharomyces cerevisiae. It was also reported to be a K^+ efflux stimulator for human colorectal adenocarcinoma HT-29 cells.

[2] = tested on: U87MG cells; assay: Intracellular K+ efflux monitored with 1(a), microplate reader; type: cell-based, human; conditions: cells loaded with 2 μM 1(a); nigericin 5 μM, bumetanide 10 μM, ouabain 10 μM; 2.5 h
Experimental: (§6) U87MG and CP-A cells were seeded onto 96 well plates at 10,000 cells per well and maintained in 100 μL medium overnight. The following day, the cells were loaded with 1(a) (2 μM) for 20 min, then the excess 1(a) was removed by washing with medium. The test substances were added and the experiment was terminated after 2.5 h by washing the cells with physiological NaCl solution. A microplate reader (Molecular Device, Downingtown, Pa.) was used to read the fluorescence intensities from the intracellular 1(a). 444 nm was used to excite the sensor and the emission was measured at 538 nm. The measured fluorescence intensities were corrected with background fluorescence. Each experiment was repeated in triplicate.
(§7) The decrease of the fluorescence intensities indicates the efflux of the intracellular potassium ions from the cells.

[3] = tested on: CP-A cells; assay: as above; type: cell-based; conditions: cells loaded with 2 μM 1(a); nigericin 5 μM, bumetanide 10 μM, ouabain 10 μM; 2.5 h
Experimental: as §6, §7

[4] = tested on: E. coli; assay: K+ release from bacteria stimulated by lysozyme, measured with F4 film; type: cell-based, E. coli JM 109; conditions: lysozyme added to bacteria in 150 mM NaCl buffer pH 7.4, F4 film
Experimental: (§1) E. coli JM 109 and B. subtilis 168 were cultured overnight in LB medium (Difco®, Becton, Dickinson and Company, Sparks, Md.) by shaking at 180 rpm at 37° C. The concentration of E. coli and B. subtilis in culture was estimated by measuring the optical density at 600 nm (OD600). OD600 value of 1 indicated a concentration of 5.0×10^8 cfu/mL. After the microorganism density was determined, bacterial cells were collected by centrifuge at 2000×g for 20 minutes at room temperature. Then appropriate densities of bacteria were made using fresh buffer (150 mM NaCl, pH 7.4) to achieve the desired initial concentrations for experiments.
(§2) The F4 film (Example 16) was placed diagonally into quartz cuvettes with 2 mL of bacteria suspension at different densities. […] The potassium ion concentration was calculated from the measured fluorescence ratio (F/F0).
(§3) F4 film was used for both gram positive (i.e. B. subtilis) and negative (i.e. E. coli) bacteria and lysozyme was used as a model drug to stimulate K^+ efflux from the organisms. […] The washed organisms were resuspended in 2 mL of the potassium-free buffer in quartz cuvettes at a concentration range of 1.5×10^10 to 1.0×10^11 cfu/mL F4 was immersed into the above prepared mixtures, and then lysozyme was added into the cuvettes to stimulate the K^+ efflux, which was monitored through the time dependent fluorescence intensity changes of F4 film. […]

[5] = tested on: B. subtilis; assay: as above; type: cell-based, B. subtilis 168; conditions: lysozyme added to bacteria in 150 mM NaCl buffer pH 7.4, F4 film
Experimental: as §1, §2, §3

[6] = Fluorescence response of sensors to other cations and pH in buffer (selectivity)
Experimental: (§4) To determine sensor responses, 50 μL of 2(a) (Example 10) was dissolved in DMSO resulting in a concentration of 200 μM which was then added into 2 mL of HEPES (10 mM, pH 7.2) buffer. […] Different metal ion concentrations were added into the solution for studying 2(a)'s responses. Although the reaction of the compound and the metal ion was rapid (usually within seconds), the spectra was measured after 2 minutes to ensure stability. 2(a)/metal ion complexes were excited at 561 nm and emissions were collected from 600 to 750 nm.
2(a) was also tested against physiological concentration levels of the following metal ions: K^+, Na^+, Ca^2+, Mg^2+, Fe^3+, Zn^2+, Mn^2+, and Cu^2+. […] Furthermore, this trend was also present when the concentrations of Na^+, Ca^2+, and Mg^2+ were increased to 140 mM (FIG. 9).
Na^+ is usually an interference ion to K^+ for the typical K^+ probes including PBFI, CD18, C18, and MCC.

[7] = tested on: U87MG cells; assay: Cytotoxicity by Trypan blue staining; type: cell-based
Experimental: Cytotoxicity of 2(a) to human glioblastoma U87MG cells was studied using Trypan blue staining. To cell culture medium (100 μL) with eukaryotic cells in a 96 well microplate with 10,000 cells/well that had internalized 2(a) for 2 hours, […] of 0.4% Trypan Blue stain was added and mixed thoroughly with the medium. After standing for 5 min at room temperature (23° C.), the cells were imaged using an optical microscope in bright field mode. Dead cells appeared blue from the Trypan Blue stain, whereas healthy cells appeared transparent as a result of the cell's resistance to stain. The cells were then counted and the ratio of dead cells to live cells was calculated. Each experiment was repeated three times.
(§5) Cytotoxicity of the sensor 1(a) to cells was studied using Trypan blue staining. After 30 minutes internalization of the sensor with cells, more than 97% cells were viable, showing the non-cytotoxicity of 1(a) to the two cell lines under our experimental conditions.

[8] = tested on: CP-A cells; assay: Cytotoxicity by Trypan blue staining; type: cell-based; conditions: 1(a) internalized for 30 minutes
Experimental: as §5

[9] = Fluorescence titration of 1(a) with KCl in HEPES buffer, Benesi-Hildebrand plot; type: binding; conditions: 10 mM HEPES pH 7.4, excitation 450 nm, emission 525 nm
Experimental: FIGS. 17A and 17B show the UV-Vis and emission spectral changes upon the interaction of 1(a) with potassium chloride (KCl) in 10 mM HEPES buffer (pH 7.4). […] This fluorescence change was attributed to photo-induced electron transfer. The lone electron pairs of the amino groups in the triazacryptand ligand quench the emission of the fluorophore of the amino-naphthalimide through PET. After interaction with K^+, the lone electron pairs of the ligand were occupied due to the formation of the ligand-K^+ complex. This change restores the emission of the amino-naphthalimide fluorophore. Fluorescence intensity change at 525 nm was plotted again K^+ concentration, which is illustrated in FIG. 17C. Binding constant K could be determined by the fluorescence spectral change using the Benesi-Hildebrand equation as described above.
Curve fitting of the fluorescence intensity of 1(a) against the reciprocal of the K^+ concentration (1/[K^+]), the Benesi-Hildebrand plot, gives a linear fit (FIG. 17D).

[10] = Fluorescence titration of 2(a) with KCl in HEPES buffer, Benesi-Hildebrand plot; type: binding; conditions: HEPES pH 7.2
Experimental: as §4
2(a) is constructed using strong electron-donating (aniline) and electron-withdrawing (TCF) groups, yielding an absorption maximum at 560 nm. The extinction coefficient (s) at 560 nm is 3.84×10^4 M^−1 cm^−1. […] Upon addition of K^+, the fluorescence intensity of 2(a) increases by ca. 4 and 50 fold at K^+ concentrations of 140 mM and 1400 mM (FIGS. 8A and 8B), respectively, resulting in corresponding η of 0.52% and 5.6%. Kd was determined by the Benesi-Hildebrand equation: F0/(F0−F)=F0/(F0−Fcomplex)+F0/(F0−Fcomplex)×Kd×1/[M] (1) where F0 is the integrated fluorescence intensity of a free sensor, F is the observed integrated fluorescence intensity, Fcomplex is the emission of the ligand-metal ion complex, and [M] is the metal ion concentration. When F0/(F0−F) is plotted against 1/[M], the binding constant is given by the ratio intercept/slope. […]

[11] = Fluorescence quantum yield against Rhodamine B standard; type: physicochemical
Experimental: The fluorescence quantum yields (η) of samples in solutions were recorded by using Rhodamine B in ethanol (η=0.65) excited at 540 nm and were calculated according to the following equation:
[formula] where (ηr) and (ηs) are the fluorescence quantum yields of standards and the samples, respectively. Ar and As are the absorbance of the standards and the measured samples at the excitation wavelength, respectively. Ir and Is are the integrated emission intensities of standards and the samples, respectively. nr and ns are the refractive indices of the corresponding solvents present in the solutions, respectively. The experimental error was approximately 10%.

[12] = tested on: U87MG cells; assay: Intracellular K+ influx monitored with 2(a), confocal fluorescence, ImageJ; type: cell-based, human; conditions: isoproterenol 5 μM with 20 mM KCl in medium, 40 minutes, 37° C.; 2(a) 4 μM
Experimental: 2(a) can also be used to monitor K^+ influx through stimuli. […] The influx stimulator (isoproterenol in KCl-containing PBS buffer) was added. Final concentrations of the added isoproterenol and KCl in the cell culture medium were 5 μM and 20 mM, respectively.

CO[C@@H]1C[C@@H](C[C@H]2CC[C@H](C)[C@H]([C@@H](C)C(=O)O)O2)O[C@]2(O[C@](C)([C@H]3CC[C@@](C)([C@@H]4O[C@@H]([C@H]5O[C@@](O)(CO)[C@H](C)C[C@@H]5C)C[C@@H]4C)O3)C[C@H]2C)[C@@H]1C [nigericin]
fluorescence intensity after stabilization, below that before stimulation ([1]; efflux stabilized after 15 minutes): about 25%
average fluorescence increase at peak of potassium influx ([1]; peak after 3 minutes, 2(a) 4 μM): 370%
K^+ efflux, decrease of 1(a) fluorescence [2]: not an efficient K^+ efflux stimulator
K^+ efflux, decrease of 1(a) fluorescence [3]: not an efficient K^+ efflux stimulator

lysozyme
K^+ efflux from bacteria over time [4]: K^+ efflux increased slowly over time
K^+ efflux from bacteria over time [5]: K^+ efflux was very fast, within the first 10 minutes

C=CCN1C(=O)c2cccc3c(NCCc4ccc(N5CCOc6cc(C)ccc6N6CCOCCOCCN(CCOCCOCC6)c6ccc(C)cc6OCC5)c(OCCOC)c4)ccc(c23)C1=O [1(a)]
selectivity against biologically relevant metal ions ([6]; 1(a), Na^+, Ca^2+, Mg^2+, Fe^3+, Zn^2+, Mn^2+, Cu^2+ at physiological concentrations (FIG. 17E)): high selectivity
viable cells ([7]; 1(a) internalized for 30 minutes, Trypan blue): more than 97%
viable cells [8]: more than 97%
binding constant (K) [9]: 0.133 mM⁻¹

COCCOc1cc(/C=C/C2=C(C#N)C(=C(C#N)C#N)OC2(C)C)ccc1N1CCOc2cc(C)ccc2N2CCOCCOCCN(CCOCCOCC2)c2ccc(C)cc2OCC1 [2(a)]
fluorescence intensity increase upon addition of K^+ ([10]; K^+ 140 mM): ca. 4 fold
fluorescence intensity increase upon addition of K^+ ([10]; K^+ 1400 mM): ~50 fold
quantum yield (η) ([11]; K^+ 140 mM): 0.52%
quantum yield (η) ([11]; K^+ 1400 mM): 5.6%
quantum yield (η) ([11]; free form, no K^+): 0.11%
selectivity to K^+ against other metal ions ([6]; Na^+, Ca^2+, Mg^2+, Fe^3+, Zn^2+, Mn^2+, Cu^2+ at physiological levels, Na^+, Ca^2+, Mg^2+ also at 140 mM): high selectivity
sensitivity to pH ([6]; pH 5 to 8): not sensitive to pH in the range of 5 to 8
viable cells ([7]; human, 2 h): more than 97%

CC(C)NCC(O)c1ccc(O)c(O)c1 (stereo not shown) [isoproterenol]
increase of average fluorescence intensity of cells after treatment [12]: 33%
